# Measurements as given in patent US20110098257A1, “DERIVATIVES OF 4- OR 5-AMINOSALICYLIC ACID” (ANTIBE THERAPEUTICS INC., priority 2005, published 2011).
# What was measured:
# [1] = system: mice having TNBS-induced colitis; assay: TNBS-induced colitis in mice (disease activity score, colonic MPO activity); format: in vivo, Balb/c mice
# Method: A standard experimental animal model of colitis induced by intracolonic administration of 2,4,6-trinitrobenzene sulfonic acid (TNBS) to mice is used in the following example. A detailed description of this model has been published (Santucci et al. (2003) Gastroenterology 124:1381-94) and is incorporated herein by reference. Briefly, 6-8 week old Balb/c mice were given TNBS intracolonically at a dose of 1.5 mg in 0.1 mL of 30% ethanol. The mice were randomized to the various treatment groups (n=6 per group). Beginning one hour later and continuing every 12 h for 5 days, the mice were treated orally with vehicle (1% carboxymethylcellulose (CMC)), 5-ASA (mesalamine) (25, 50 or 75 mg/kg) or with equimolar doses of 2-hydroxy-5-amino-benzoic acid 4-(thioxo-5H-[1,2]dithiol-3-yl)-phenyl ester hydrochloride (Compound XXXV) (130 mg/kg), or with […] (100 mg/kg), 50% (66 mg/kg) and 25% (33 mg/kg) of that dose. The mice were evaluated (blindly) on the final day of the study for the presence of diarrhea and fecal occult blood, and their body weights were measured. […] After sacrifice, a sample of the colon was excised for measurement of myeloperoxidase (MPO) activity, as a marker of granulocyte infiltration. All results were compared to those obtained with healthy mice as well.
# FIGS. 3 and 4 show the Disease Activity Index and MPO activity, respectively, using the same experimental animal model of colitis as described above, in which Compound XXXV (130 mg/kg) was compared to equimolar doses of its two constituents, mesalamine (50 mg/kg) and 5-p-hydroxyphenyl-[…] (ADT-OH) (80 mg/kg), and a mixture of mesalamine (50 mg/kg) and ADT-OH (80 mg/kg). *p<0.05 versus the vehicle-treated group. Each group consisted of at least 5 rats.
# FIGS. 6 and 7 show the Disease Activity Index and MPO, respectively, using the same experimental animal model of colitis as described above, in which Compound XXVII (100 mg/kg) was compared to equimolar doses of its two constituents, mesalamine (50 mg/kg) and 4-hydroxythiobenzamide (4-HTB) (50 mg/kg), mesalamine alone (50 mg/kg) and 4-HTB alone (50 mg/kg). *p<0.05 versus the vehicle-treated group. Each group consisted of at least 5 rats.
# (§1) The same model was used as described above. In this example, the effects of mesalamine (50 mg/kg) were compared to those of equimolar doses of Compound XXXV. In addition to measuring the severity of colitis by measuring disease activity score and MPO activity, tissues were processed for measurement of a number of genes for inflammatory cytokines and other mediators.
# [2] = system: leukocyte adherence in mesenteric post-capillary venules; assay: Leukocyte adherence to the vascular endothelium in vivo (intravital microscopy, aspirin-induced); design: species or system Rats
# Method: Leukocyte adherence was studied using intravital microscopy, as described in detail previously (Wallace et al., (1993) Am. J. Physiol. 265: 993-998, incorporated hereto by reference). Rats were anesthetized with pentobarbital sodium (60 mg/kg i.p.) and cautery incisions were made along the abdominal region. A tracheotomy was performed to facilitate breathing. The rats were placed in a supine position, and a segment of the mesentery was exteriorized through the abdominal incision. The mesentery was carefully placed over an optically clear viewing pedestal that allowed for trans-illumination of a 2-cm^2 segment of tissue. All exposed tissue was covered with saline-soaked gauze to minimize dehydration. The temperature of the pedestal was kept at 37° C. and the mesentery was superfused with warmed bicarbonate-buffered saline (pH 7.4). An intravital microscope (Nikon L25/0.35) and a ×10 eyepiece were used to observe the mesenteric microcirculation. Post-capillary venules with diameters ranging from 20 to 40 μm were selected for the study. A video camera mounted on the microscope (Panasonic™ digital 5000) projected the image onto a monitor, and the images were recorded for playback analysis using a videocassette recorder. Images of the mesenteric microcirculation were recorded 5 minutes prior to aspirin administration (baseline), at the time of aspirin administration (time 0-5) and every 15 minutes for 60 minutes. Leukocyte adherence was blindly quantified from videotaped images of the vessels made over 5-min periods as the number of leukocytes that remained stationary along the vessel wall for 30 s or more (expressed per 100 μm venule length). Groups of rats (at least 5 in each) were pretreated with Compound XXXV (130 mg/kg), Compound XXVII (100 mg/kg), mesalamine (50 mg/kg), or vehicle 60 min prior to aspirin (or vehicle) administration. These drugs were given intragastrically. In some experiments, rats were treated with glibenclamide (10 mg/kg i.p.) or vehicle 30 min prior to administration of these compounds.
# COX-1 mRNA = assay: Colonic mRNA expression by RT-PCR in TNBS-induced colitis; format: in vivo, mice; details: dose equimolar to mesalamine 50 mg/kg; FIG. 13
# Method: as §1
# (§2) In particular, mRNA expression in mice of tumour necrosis factor-alpha (TNF-α), interferon gamma (IFN-[…]γ), colonic interleukin (IL)-1, IL-2, IL-10, IL-12 p40, RANTES, cyclooxygenase (COX)-1, COX-2, constitutive endothelial nitric oxide synthase (eNOS), and inducible NOS (iNOS) was measured as described in Wallace et al. (1999) Gastroenterology 117: 557-566, incorporated herein by reference.
# (§3) Briefly, reverse transcription-polymerase chain reaction (RT-PCR) was used to detect and quantify mRNA of the particular cytokine/chemokine/enzyme. Glyceraldehyde-3-phosphate dehydrogenase (GAPDH) was used as the “housekeeping gene” for mRNA expression (i.e., as an internal control). For each sample, the ratio of the amplification of the target gene to the amplification of GAPDH (expression of each is measured by performing densitometry on gels) was obtained. Comparisons were then made between the relative amplification (expression) of the target gene in tissues for the treatment groups in comparison to the expression in tissues from healthy controls. Thus, the data shown in FIGS. 7-14 represent the relative expression of the target gene (normalized to GAPDH expression) as a ratio to the expression in healthy controls.
# eNOS mRNA = assay: as above; format: in vivo, mice; details: dose equimolar to mesalamine 50 mg/kg; FIG. 14
# Method: as §1, §2, §3
# iNOS mRNA = assay: as above; format: in vivo, mice; details: dose equimolar to mesalamine 50 mg/kg; FIG. 14
# Method: as §1, §2, §3
# [3] = system: mRNA for several pro-inflammatory cytokines and chemokines; assay: as above; format: in vivo, mice; details: dose equimolar to mesalamine 50 mg/kg; normalized to GAPDH, ratio to healthy controls
# Method: as §1, §2, §3
# COX-2 mRNA = assay: as above; format: in vivo, mice; details: dose equimolar to mesalamine 50 mg/kg; FIG. 13
# Method: as §1, §2, §3
compound,measurement,setting,value
"Nc1ccc(O)c(C(=O)Oc2ccc(-c3cc(=S)ss3)cc2)c1 [Compound XXXV, 5-Amino-2-hydroxy-benzoic acid 4-(5-thioxo-5H-[1,2]dithiol-3-yl)-phenyl ester]",Disease Activity Index,"[1]; Compound XXXV 130 mg/kg vs mesalamine 50 mg/kg, ADT-OH 80 mg/kg and their mixture, FIG. 3","almost twice as effective as either mesalamine alone, ADT-OH alone or a mixture of mesalamine and ADT-OH"
same,MPO activity (granulocyte infiltration),"[1]; Compound XXXV 130 mg/kg, FIG. 4",significantly reduced inflammation
same,"every endpoint of FIGS. 7-14 (MPO activity, disease activity score, mRNA expression)","[1]; dose equimolar to mesalamine 50 mg/kg, compared with mesalamine",superior to mesalamine in every endpoint
same,Disease Activity Score,"[1]; dose-ranging, oral every 12 h for 5 days, equimolar doses of 50 mg/kg and 75 mg/kg, compared with mesalamine, FIG. 1",superior to mesalamine in reducing the activity score
same,myeloperoxidase (MPO) activity,"[1]; dose-ranging, oral every 12 h for 5 days, highest doses tested, FIG. 2",significantly reduced (almost in half)
same,aspirin-induced leukocyte adherence with glibenclamide pretreatment,"[2]; glibenclamide 10 mg/kg i.p. 30 min prior to the compound, compound plus aspirin, FIG. 19",glibenclamide reversed the inhibitory effect
same,"aspirin-induced leukocyte adherence, final time period","[2]; minutes 60-65, Compound XXXV 130 mg/kg, Compound XXVII 100 mg/kg, FIG. 20",suppress aspirin-induced leukocyte adherence
same,"aspirin-induced leukocyte adherence, final time period, with glibenclamide pretreatment","[2]; minutes 60-65, glibenclamide 10 mg/kg i.p., FIG. 20",glibenclamide pretreatment to reverse this inhibitor effect
same,aspirin-induced increase in leukocyte adherence,"[2]; pretreatment: Compound XXXV 130 mg/kg or mesalamine 50 mg/kg intragastrically 60 min prior to aspirin, glibenclamide 10 mg/kg i.p., FIG. 19",prevented the aspirin-induced increase in leukocyte adherence
same,COX-1 mRNA expression,COX-1 mRNA,suppressed
same,eNOS mRNA expression,eNOS mRNA,suppressed
same,iNOS mRNA expression,iNOS mRNA,suppressed
same,expression of mRNA for pro-inflammatory cytokines and chemokines,[3],suppressed expression of mRNA for several pro-inflammatory cytokines and chemokines
same,COX-2 mRNA expression,COX-2 mRNA,suppressed
